Experimental data: patent US6649654B1, “Methods for identifying and using IKK inhibitors” (The Regents of the University of California, priority 1999, dated 2003)

What was measured:
Type in all cases: cell-based
IKKβ(C179A) = biological target: T1, IKKβ(C179A) (Homo sapiens, UniProt O14920, C179A); test: IKKβ(C179A) coexpressed with NIK in HeLa cells, kinase activity; conditions: HeLa cells coexpressing NIK, treated 2 hours
T1 sequence (O14920 1-756 C179A): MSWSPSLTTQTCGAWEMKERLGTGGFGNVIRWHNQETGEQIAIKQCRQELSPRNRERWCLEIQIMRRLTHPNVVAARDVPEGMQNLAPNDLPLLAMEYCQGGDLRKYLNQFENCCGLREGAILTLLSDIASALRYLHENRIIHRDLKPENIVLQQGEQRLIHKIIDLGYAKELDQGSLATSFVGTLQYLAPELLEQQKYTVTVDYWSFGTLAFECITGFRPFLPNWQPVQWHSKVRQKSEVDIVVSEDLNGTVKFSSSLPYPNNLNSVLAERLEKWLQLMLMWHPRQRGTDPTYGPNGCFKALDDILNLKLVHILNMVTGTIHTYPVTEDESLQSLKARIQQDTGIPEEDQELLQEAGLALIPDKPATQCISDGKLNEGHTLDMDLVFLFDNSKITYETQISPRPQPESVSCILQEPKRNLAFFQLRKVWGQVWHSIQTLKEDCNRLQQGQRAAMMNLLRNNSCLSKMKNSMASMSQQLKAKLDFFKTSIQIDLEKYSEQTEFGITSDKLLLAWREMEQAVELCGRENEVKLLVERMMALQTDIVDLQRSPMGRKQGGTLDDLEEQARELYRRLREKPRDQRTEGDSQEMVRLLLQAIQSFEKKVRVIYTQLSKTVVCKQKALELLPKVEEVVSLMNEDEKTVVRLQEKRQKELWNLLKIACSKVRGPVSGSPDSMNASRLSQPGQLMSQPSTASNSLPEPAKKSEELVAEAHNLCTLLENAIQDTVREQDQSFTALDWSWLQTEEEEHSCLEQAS
Experimental: In an experiment to determine whether this cysteine is critical for sensitivity to cyPG, cysteine was replaced with an alanine using site-directed mutagenesis. In these experiments, HeLa cells were transiently transfected with expression vectors for IKKβ(WT) or IKKβ(C179A) with or without a NIK expression vector. After 16 hours, NIK transfected cells were treated for 2 hours with 15dPGJ2. Kinase activity (KA) and expression (IB:HA) were subsequently determined. Thus, wild-type (WT) IKKβ and mutant IKKβ (i.e., IKKβ(C179A)) were coexpressed with NIK in HeLa cells and their sensitivity to 15dPGJ2 examined. While both constructs were equally responsive to NIK, resulting in similar levels of kinase activity, the IKKβ(C179A) mutant was resistant to inhibitor (See, FIG. 6C).

JNK = JNK (Homo sapiens, UniProt P45983); test: JNK activity in HeLa cells; design: endogenous in cells; conditions: even in the absence of TNFα
Experimental: (§1) Cells used in the experiments described herein were cultured in either RPMI 1640 (Jurkat cells) or DMEM (HeLa and COS cells), supplemented with 10% FBS and antibiotics. Cells were stimulated with either 25 ng/ml TPA, 20 ng/ml recombinant TNFα, or 10 ng/ml interleukin 1β (Sigma). PGA1, 15dPGJ2, T×B2, LTB4, AA and other PGs (Cayman) dissolved in ethanol were used as well, as known in the art (See e.g., Rossi et al., 94:746-750 [1997]). Controls received equal amounts of ethanol. Transfections were performed using Lipofectamine Plus (GIBCO) for HeLa and COS cells and DEAE-dextran (Sigma) for Jurkat cells. Xpress-tagged NIK, Xpress-tagged MEKK1, HA-tagged IKKα, and HA-tagged IKKβ were also used (See e.g., Zandi et al., Science 281:1360-1363 [1998]; and Delhase et al., Science 284:309-313 [1999]). COX2 and cPLA2 expression vectors were obtained from Dr. L. Feng (See also, Hirose et al., J. Am. Soc. Nephrol., 9:408-416 [1998]). PGD synthase was cloned from HT29 colon carcinoma cell line cDNA by PCR and subcloned into a pCDNA3 vector. […]
(§2) Cell lysates were incubated with anti-IKKα (Pharmingen), anti-HA (12CA5; Pharmingen), anti-JNK1 (333.8; Pharmingen), or anti-p38 (New England Biolabs) for 2 hours. […] Endogenous IKK, HA-tagged IKKα, endogenous JNK1, and p38 activities were determined with GST-1κBα(1-54), GST-c-Jun(1-79), and GST-ATF2 as substrates.

p38 = p38 (Homo sapiens, UniProt Q16539); test: p38 MAP kinase activation in TPA-stimulated Jurkat cells; design: endogenous in cells; host or cells: Jurkat; conditions: 24 μM PGA1, TPA
Experimental: as §1
as §2, with “substrates. […]” for “substrates.”

p38, sequence (Q16539 whole entry): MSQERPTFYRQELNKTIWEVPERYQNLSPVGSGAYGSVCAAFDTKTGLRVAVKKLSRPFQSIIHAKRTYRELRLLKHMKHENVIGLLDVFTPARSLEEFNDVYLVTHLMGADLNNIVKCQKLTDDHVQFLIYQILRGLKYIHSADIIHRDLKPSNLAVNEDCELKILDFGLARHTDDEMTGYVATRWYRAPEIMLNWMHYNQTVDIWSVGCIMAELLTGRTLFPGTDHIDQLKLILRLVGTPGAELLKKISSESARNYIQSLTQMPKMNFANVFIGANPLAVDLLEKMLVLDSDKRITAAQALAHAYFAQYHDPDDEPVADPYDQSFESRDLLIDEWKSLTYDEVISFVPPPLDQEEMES
JNK, sequence (P45983 whole entry): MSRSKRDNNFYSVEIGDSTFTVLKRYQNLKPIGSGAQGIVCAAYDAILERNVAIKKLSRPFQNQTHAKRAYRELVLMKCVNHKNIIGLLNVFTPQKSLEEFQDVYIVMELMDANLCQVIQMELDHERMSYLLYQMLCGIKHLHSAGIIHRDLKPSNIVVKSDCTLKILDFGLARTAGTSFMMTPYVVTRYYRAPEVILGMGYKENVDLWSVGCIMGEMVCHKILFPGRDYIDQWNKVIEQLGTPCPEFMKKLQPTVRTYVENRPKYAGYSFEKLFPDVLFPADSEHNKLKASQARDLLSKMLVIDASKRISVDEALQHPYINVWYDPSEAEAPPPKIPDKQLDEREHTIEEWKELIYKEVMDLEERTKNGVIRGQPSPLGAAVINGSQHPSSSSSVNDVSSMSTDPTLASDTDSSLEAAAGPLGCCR

| sensitivity of IKKβ(C179A) kinase activity to inhibitor (IKKβ(C179A)) | effect on JNK activity (JNK) | effect on activation of p38 MAP kinase (p38) | SMILES |
| --- | --- | --- | --- |
| resistant | stimulated | – | CCCCC/C=C/C=C1/C(=O)C=C[C@@H]1C/C=C\CCCC(=O)O [15dPGJ2, 15-deoxy-Δ^12-14-PGJ2] |
| – | – | did not inhibit | CCCCC[C@H](O)/C=C/[C@H]1C=CC(=O)C1CCCCCCC(=O)O (stereo partly drawn) [PGA1, prostaglandin A1] |
